# Experimental data taken from PubChem BioAssay AID2060508 (Molecular Pharmacology Branch, DTP, NCI, 2025).
# pIC50: −log10 of the molar value.
# Tested on: 454973-116-R2-J3-PDC spheroids, viability, % test/control
# Assay: Anticancer human tumor 454973-116-R2-J3-PDC patient-derived pancreatic carcinoma cell line growth inhibition [GQUAD]
# Settings: curve of first compound; second compound 10 µM; spheroids with HUVEC and MSC
# Source text: DNA G-quadruplex Stabilizer Agents in Combinations in Complex Spheroids
# A high-throughput screen of multi-cell type tumor spheroids was designed to identify active combinations of DNA G-quadruplex stabilizer agents and targeted small molecules. Complex spheroids include a stromal component modeled by human endothelial cells (HUVEC) and fibroblasts modeled by human mesenchymal stem cells (MSCs). The concentration ranges selected for each drug and investigational agent were based upon clinically achievable concentrations if the clinical Cmax of the agent was known.
# Compounds. The drugs and investigational agents: pidnarulex (CX-5461; NSC782164), APTO-253 (NSC789042), BRACO-19 (NSC847499), peposertib (NSC802822), ceralasertib (NSC780249), elimusertib (NSC800525), camonsertib (NSC841442), AZD-1390 (NSC803789), olaparib (NSC753686), talazoparib (NSC767125), ART-558 (NSC835418), sotorasib (NSC818433), MRTX-1133 (NSC836407), SN-38 (NSC673596), topotecan (NSC609699), etoposide (NSC141540), doxorubicin (NSC123127), gemcitabine (NSC613327), 5-fluorouracil (NSC19893), paclitaxel (NSC125973), vemurafenib (NSC761431), panobinostat (NSC761190), R-306465 (JNJ-16241199; NSC773264), adavosertib (NSC754352), TP-3654 (NSC805149), carboplatin (NSC241240), KSQ-4279 (NSC840948), and staurosporine (NSC755774) were obtained from the National Cancer Institute (NCI) Developmental Therapeutics Program Chemical Repository (34). The FDA-approved anticancer drug set is available from the NCI Developmental Therapeutics Program. […] The stock solutions were prepared in dimethyl sulfoxide (DMSO, Sigma-Aldrich, St. Louis, MO, cat. D2650) at 800-fold the tested concentration and stored at -70 degrees C prior to their use. All drugs and investigational agents were tested over a range starting from a high concentration at or near the clinical Cmax and decreasing in half-log increments. If the clinical Cmax for an agent had not been determined, the highest concentration tested was 10 microM.
# 2.3 Cell Culture. All cells were maintained in an incubator at 37 degrees C and 5% CO2 with 95% humidity. The PDC lines were cultured according to standard operating procedures established by the NCI PDMR. All PDCs were thawed and cultured in Matrigel-coated flasks prepared with a working solution of 1X Ham's F-12 nutrient mix, without supplementation (Invitrogen, cat. 11765054), 100 U/mL penicillin-streptomycin (Invitrogen, cat. 15140122), and 2.5% Matrigel (Corning Inc., cat. 354248) for the first three passages. The 857933-349-R-J2-PDC line was cultured in 6C/Colon 1B media, which includes advanced DMEM/F-12 (Thermo Fisher Scientific, cat. 12634028), 10 mM HEPES (Thermo Fisher Scientific, cat. 15630080), 1X GlutaMAX supplement (Thermo Fisher Scientific, cat. 35050061), 0.1 mg/mL primocin (InvivoGen, cat. ant-pm-2), 10% defined fetal bovine serum, heat inactivated (HyClone Laboratories Inc., cat. SH30070.03HI), 50% L-WRN conditioned media (ATCC, cat. CRL-3276), 1.25 mM N-Acetyl-L-cysteine (Sigma-Aldrich, cat. A9165), 10 mM nicotinamide (Sigma-Aldrich, cat. N0636), 1X B-27 supplement (Thermo Fisher Scientific, cat. 17504044), 1X N-2 supplement (Thermo Fisher Scientific, cat. 17502048), 10 microM Y-27632 dihydrochloride (Tocris Bioscience, cat. 1254), and 50 ng/mL human EGF recombinant protein (Thermo Fisher Scientific, cat. PHG0311). The 485176-168-R4-J1-PDC line was cultured in Panc media, which includes all 6C/Colon 1B media components plus 100 ng/mL human FGF-10 (Thermo Fisher Scientific, cat. 100-26), 500 nM SB-431542 (Selleckchem, cat. S1067), and gastrin (Tocris, cat. 3006).
# […]
# 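Note: spheroids exposed to compounds for seven days.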
row,Compound,pIC50
1,CC(C)n1c(=O)n(C)c2cnc3cc(F)c(-c4ccc(OCCCN5CCCCC5)nc4)cc3c21 + CN(C)c1ccc(Nc2c3ccc(NC(=O)CCN4CCCC4)cc3nc3cc(NC(=O)CCN4CCCC4)ccc23)cc1,5.35
2,Nc1ccn(C2OC(CO)C(O)C2(F)F)c(=O)n1 (stereo unspecified) + CN(C)c1ccc(Nc2c3ccc(NC(=O)CCN4CCCC4)cc3nc3cc(NC(=O)CCN4CCCC4)ccc23)cc1,> 7.50
3,O=c1[nH]cc(F)c(=O)[nH]1 + CN(C)c1ccc(Nc2c3ccc(NC(=O)CCN4CCCC4)cc3nc3cc(NC(=O)CCN4CCCC4)ccc23)cc1,5.72

# Same assay, conditions: second compound 0.0316 µM; first compound 0.0316 µM; stronger effect = lower value; spheroids with HUVEC and MSC
row,Compound,"viability, T/C"
1,C#Cc1c(F)ccc2cc(O)cc(-c3ncc4c(N5CC6CCC(C5)N6)nc(OCC56CCCN5CC(F)C6)nc4c3F)c12 (stereo unspecified) + CN(C)c1ccc(Nc2c3ccc(NC(=O)CCN4CCCC4)cc3nc3cc(NC(=O)CCN4CCCC4)ccc23)cc1,54.1%
2,CC(C)n1c(=O)n(C)c2cnc3cc(F)c(-c4ccc(OCCCN5CCCCC5)nc4)cc3c21 + CN(C)c1ccc(Nc2c3ccc(NC(=O)CCN4CCCC4)cc3nc3cc(NC(=O)CCN4CCCC4)ccc23)cc1,108%
3,Nc1ccn(C2OC(CO)C(O)C2(F)F)c(=O)n1 (stereo unspecified) + CN(C)c1ccc(Nc2c3ccc(NC(=O)CCN4CCCC4)cc3nc3cc(NC(=O)CCN4CCCC4)ccc23)cc1,19%
4,O=c1[nH]cc(F)c(=O)[nH]1 + CN(C)c1ccc(Nc2c3ccc(NC(=O)CCN4CCCC4)cc3nc3cc(NC(=O)CCN4CCCC4)ccc23)cc1,114%

# Same assay, conditions: second compound 0.0316 µM; first compound 0.1 µM; stronger effect = lower value; spheroids with HUVEC and MSC
row,Compound,"viability, T/C"
1,C#Cc1c(F)ccc2cc(O)cc(-c3ncc4c(N5CC6CCC(C5)N6)nc(OCC56CCCN5CC(F)C6)nc4c3F)c12 (stereo unspecified) + CN(C)c1ccc(Nc2c3ccc(NC(=O)CCN4CCCC4)cc3nc3cc(NC(=O)CCN4CCCC4)ccc23)cc1,37.5%
2,CC(C)n1c(=O)n(C)c2cnc3cc(F)c(-c4ccc(OCCCN5CCCCC5)nc4)cc3c21 + CN(C)c1ccc(Nc2c3ccc(NC(=O)CCN4CCCC4)cc3nc3cc(NC(=O)CCN4CCCC4)ccc23)cc1,94.8%
3,Nc1ccn(C2OC(CO)C(O)C2(F)F)c(=O)n1 (stereo unspecified) + CN(C)c1ccc(Nc2c3ccc(NC(=O)CCN4CCCC4)cc3nc3cc(NC(=O)CCN4CCCC4)ccc23)cc1,13.3%
4,O=c1[nH]cc(F)c(=O)[nH]1 + CN(C)c1ccc(Nc2c3ccc(NC(=O)CCN4CCCC4)cc3nc3cc(NC(=O)CCN4CCCC4)ccc23)cc1,98.1%

# Same assay, conditions: second compound 0.0316 µM; first compound 0.316 µM; stronger effect = lower value; spheroids with HUVEC and MSC
row,Compound,"viability, T/C"
1,C#Cc1c(F)ccc2cc(O)cc(-c3ncc4c(N5CC6CCC(C5)N6)nc(OCC56CCCN5CC(F)C6)nc4c3F)c12 (stereo unspecified) + CN(C)c1ccc(Nc2c3ccc(NC(=O)CCN4CCCC4)cc3nc3cc(NC(=O)CCN4CCCC4)ccc23)cc1,28.1%
2,CC(C)n1c(=O)n(C)c2cnc3cc(F)c(-c4ccc(OCCCN5CCCCC5)nc4)cc3c21 + CN(C)c1ccc(Nc2c3ccc(NC(=O)CCN4CCCC4)cc3nc3cc(NC(=O)CCN4CCCC4)ccc23)cc1,104%
3,Nc1ccn(C2OC(CO)C(O)C2(F)F)c(=O)n1 (stereo unspecified) + CN(C)c1ccc(Nc2c3ccc(NC(=O)CCN4CCCC4)cc3nc3cc(NC(=O)CCN4CCCC4)ccc23)cc1,16.6%
4,O=c1[nH]cc(F)c(=O)[nH]1 + CN(C)c1ccc(Nc2c3ccc(NC(=O)CCN4CCCC4)cc3nc3cc(NC(=O)CCN4CCCC4)ccc23)cc1,108%

# Same assay, conditions: second compound 0.0316 µM; first compound 1 µM; stronger effect = lower value; spheroids with HUVEC and MSC
row,Compound,"viability, T/C"
1,C#Cc1c(F)ccc2cc(O)cc(-c3ncc4c(N5CC6CCC(C5)N6)nc(OCC56CCCN5CC(F)C6)nc4c3F)c12 (stereo unspecified) + CN(C)c1ccc(Nc2c3ccc(NC(=O)CCN4CCCC4)cc3nc3cc(NC(=O)CCN4CCCC4)ccc23)cc1,20.2%
2,CC(C)n1c(=O)n(C)c2cnc3cc(F)c(-c4ccc(OCCCN5CCCCC5)nc4)cc3c21 + CN(C)c1ccc(Nc2c3ccc(NC(=O)CCN4CCCC4)cc3nc3cc(NC(=O)CCN4CCCC4)ccc23)cc1,99.2%
3,Nc1ccn(C2OC(CO)C(O)C2(F)F)c(=O)n1 (stereo unspecified) + CN(C)c1ccc(Nc2c3ccc(NC(=O)CCN4CCCC4)cc3nc3cc(NC(=O)CCN4CCCC4)ccc23)cc1,13.1%
4,O=c1[nH]cc(F)c(=O)[nH]1 + CN(C)c1ccc(Nc2c3ccc(NC(=O)CCN4CCCC4)cc3nc3cc(NC(=O)CCN4CCCC4)ccc23)cc1,84.2%

# Same assay, conditions: second compound 0.0316 µM; first compound 3.16 µM; stronger effect = lower value; spheroids with HUVEC and MSC
row,Compound,"viability, T/C"
1,C#Cc1c(F)ccc2cc(O)cc(-c3ncc4c(N5CC6CCC(C5)N6)nc(OCC56CCCN5CC(F)C6)nc4c3F)c12 (stereo unspecified) + CN(C)c1ccc(Nc2c3ccc(NC(=O)CCN4CCCC4)cc3nc3cc(NC(=O)CCN4CCCC4)ccc23)cc1,20.2%
2,CC(C)n1c(=O)n(C)c2cnc3cc(F)c(-c4ccc(OCCCN5CCCCC5)nc4)cc3c21 + CN(C)c1ccc(Nc2c3ccc(NC(=O)CCN4CCCC4)cc3nc3cc(NC(=O)CCN4CCCC4)ccc23)cc1,78.7%
